Three compounds from publication PMC12856912, “Structure-Guided Semisynthesis of Blasticidin S–Amicetin Chimeras as Selective Ribosome Inhibitors” (Journal of the American Chemical Society, 2026) can be followed below.

The test system of series [1] is Escherichia coli BAA-2452. The series can be described thus: Antibacterial MIC assay, serial dilution. In kind it is cell-based. The settings on record: BAA2452, read-out: MIC Escherichia coli BAA-2452.
For series [2], the system named is Methicillin resistant Staphylococcus epidermidis (MRSE) ATCC 35984 NRS101. As to the kind of experiment: Antibacterial MIC assay, serial dilution. It is filed as cell-based. Particulars: for Selectivity index (CC50/MIC) MRSE 35984: CC50 Vero cells / MIC; for MIC: Staphylococcus epidermidis, read-out: MIC Methicillin resistant Staphylococcus epidermidis (MRSE) ATCC 35984 NRS101.

The test system of series [3] is Methicillin resistant S. aureus (MRSA) USA300. As to the kind of experiment: Antibacterial MIC assay, serial dilution. In kind it is cell-based, Staphylococcus aureus. Particulars: for Selectivity index (CC50/MIC) MRSA USA300: CC50 Vero cells / MIC; for MIC: Staphylococcus aureus, read-out: MIC Methicillin resistant S. aureus (MRSA) USA300.
The test system of series [4] is Vancomycin resistant E. faecalis NR-31972 (VRE). As to the kind of experiment: Antibacterial MIC assay, serial dilution. It is filed as cell-based, Enterococcus faecalis. The settings on record: for Selectivity index (CC50/MIC) VRE NR-31972: CC50 Vero cells / MIC; for MIC: Enterococcus faecalis, VRE, 24 h, read-out: MIC Vancomycin resistant E. faecalis NR-31972 (VRE). The method, then:
(§1) Media and solutions were autoclaved or sterile filtered prior to use and mani pulations were carri ed out in a laminar flow hood. Antibacterial t esting was performed in polypropylene 96-well flat bottom plates. The minimal inhibitory concentration of blasticidin S (1) hydrochloride, methyl ester (3) trihydrochloride, P10 (2) tri-T FA , phenet hyl amide (4) tri -T FA , an d blastimidines M 19– 22, A, 29–32, P 37–40, and C 43–46 (salt forms as described in the te xt) were assessed against Staphylococcus aureus ΔNorA, S. aureus ATCC 6538P, methicillin-resistant S. aureus (MRSA) ATCC 43300, Enterococcus faecalis ATCC 29212, vancomycin- resistant Enterococcus, Klebsiella pneumoniae ATCC 29665, Pseudomonas aeruginosa,and Acinetobacter baumannii ATCC 17978 using serial dilutions. Doxycycline (Gold Bio) as a positive control and the vehicle as a negative control. Stock solutions of each compound were prepared at 2.56 mg/mL in 50% DMSO/water and serially diluted in 50% DMSO/water to create master plates. From the master plates, 10 μ L o f each dilution was applied to test plates using a Bravo automated liquid transfer system (Agilent).
(§2) Bacteria previously grown overnight (37 °C, 120–200 RPM), in LB broth were diluted to an OD600 of 0.05 in cation-adjusted Mueller-Hinton broth (CAMHB), grown to an OD600 of ~0.5, and diluted to an OD600 of 0.004 in CAMHB . These diluted cultures were applied to the test plates (190 μL per test well) resulting in final concentrations of the test compounds of 128–1 μg/ m L.
(§3) Growth controls (wells with inoculated media but no vehicle or test compounds) were included to assess any potential toxicity from the vehicle. Th e plates were in cubated at 37 °C for 16–18 h, except fo r VRE and E. faecalis, which w ere in cub ated at 37 °C fo r 24 h. Inh ibition was determined by measuring the optical density at 600 nm (OD60 0) with a Cytation 3 pl ate read er (BioTek). The optical density measurem ents were no rmalized to the positive and negative controls and the vehicle and growth controls were compared and found to b e indistinguishable, indicating no toxicity from […]
(§4) the vehicle used. The MIC was the lowest concentration that inhibited >90% of growth. Two biological replicates were performed in duplicate. MIC values are reported as a range from […]

For series [5], the system named is MRSA ATCC 43300. The series can be described thus: Antibacterial MIC assay, serial dilution. It is filed as cell-based, Staphylococcus aureus. Particulars: for Selectivity index (CC50/MIC) MRSA 43300: CC50 Vero cells / MIC; for MIC: Staphylococcus aureus, read-out: MIC MRSA ATCC 43300. The method, then:
as §1, §2, §3, §4

Series [6] deals with S. aureus ATCC 6538P. The series can be described thus: Antibacterial MIC assay, serial dilution. The settings on record: for Selectivity index (CC50/MIC) S. aureus 6538P: CC50 Vero cells / MIC; for MIC: Staphylococcus aureus, ATCC 6538P / ATCC 6539P, read-out: MIC S. aureus ATCC 6539P. It is filed as cell-based, Staphylococcus aureus. The method, then: as §1, §2, §3, §4
For series [7], the system named is S. aureus ΔNorA. The series can be described thus: Antibacterial MIC assay, serial dilution. It is filed as cell-based, Staphylococcus aureus. Particulars: for Selectivity index (CC50/MIC) S. aureus ΔNorA: CC50 Vero cells / MIC; for MIC: Staphylococcus aureus, read-out: MIC S. aureus ∆NorA. How it is done:
as §1, §2, §3, §4

Series [8] relates to Vancomycin resistant Enterococcus faecium NR-31909 (VRE). The series can be described thus: Antibacterial MIC assay, serial dilution. It is filed as cell-based. Particulars: for Selectivity index (CC50/MIC) VRE NR-31909: CC50 Vero cells / MIC; for MIC: Enterococcus faecium, VRE, 24 h, read-out: MIC Vancomycin resistant Enterococcus faecium NR-31909 (VRE). How it is done: as §1, §2, §3, §4

For series [9], the system named is Pseudomonas aeruginosa. As to the kind of experiment: Antibacterial MIC assay, serial dilution. It is filed as cell-based. The settings on record: for Selectivity index (CC50/MIC) P. aeruginosa: CC50 Vero cells / MIC; for MIC: Pseudomonas aeruginosa, range from biological replicates, read-out: MIC P. aeruginosa. How it is done: as §1, §2, §3, §4
For series [10], the system named is Enterococcus faecalis ATCC 29212. The series can be described thus: Antibacterial MIC assay, serial dilution. Particulars: for Selectivity index (CC50/MIC) E. faecalis 29212: CC50 Vero cells / MIC; for MIC: Enterococcus faecalis, ATCC 29112 / ATCC 29212, 24 h, read-out: MIC E. faecalis ATCC 29112. In kind it is cell-based. How it is done:
as §1, §2, §3, §4

Series [11] concerns Klebsiella pneumoniae ATCC 29665. The series can be described thus: Antibacterial MIC assay, serial dilution. In kind it is cell-based. The settings on record: for Selectivity index (CC50/MIC) K. pneumoniae: CC50 Vero cells / MIC; for MIC: Klebsiella pneumoniae, ATCC29665, range from biological replicates, read-out: MIC K. pneumoniae ATCC-29665. The method, then: as §1, §2, §3, §4

In series [12] the test system is Acinetobacter baumannii ATCC 17978. As to the kind of experiment: Antibacterial MIC assay, serial dilution. In kind it is cell-based. Particulars: ATCC17978, range from biological replicates. The method, then:
as §1, §2, §3, §4

Series [13] is described as follows: Cytotoxicity assay (MTS/PMS). In kind it is cell-based. The settings on record: monkey, 24 h treatment, MTS/PMS, average of three biological replicates, read-out: CC50 against Vero cells. The method, then: The potential cytotoxic eff ect of the test compounds was investigated using Vero cells (monkey kidney epitheli al cells) following est ablished protocols.3 Briefly, Vero cells were plated into 96-well plates supplemented with Dulbecco's Modified Eagle Medium (DMEM) containing 10% fetal bovine serum (FBS). The cells were placed in a humidified 37 °C environment for incubation with 5% CO₂ for 24 h to allow proper adherence and growth. Following the incubation period, the culture medium was replaced with fresh DMEM containing serial dilutions of the test compounds, while the v ehicle alon e w as used as a negative control. The treated cells were incubated for an additional 24 h. To assess cell viability, the MTS/PMS reagent was added to each well and incubat ed for 4 h. A microplate reader (S ynergy H1, BioTek, USA) was used to m easure absorbance at 490 nm. Al l experiments wer e cond ucted usingthree biologi cal replicates .
Ta b l e S2. CC50 valuesa (µg/mL) against Vero cells […]
aValues at which the cell viability (normalized to vehicle control) was 50%. […]

[14] abbreviates: Vero cells (monkey kidney epithelial cells).

Values after ≈ are worked out from the molar mass of the structure shown. Where two headings read alike, the source gives them in different places.

Turning to `COC(=O)[C@H]1O[C@@H](n2ccc(NC(=O)c3ccc(N)cc3)nc2=O)C=C[C@@H]1NC(=O)C[C@@H](N)CCN(C)C(=N)N` [Blastimidine M2], the MIC in [1] was 32 µg/mL (≈ 57.6 µM); in series [2], 16 µg/mL (≈ 28.8 µM); in series [3], 8 µg/mL (≈ 14.4 µM); in [4] it was 32 µg/mL (≈ 57.6 µM); in series [5] it was 16 µg/mL (≈ 28.8 µM); in [6], 16 µg/mL (≈ 28.8 µM). The MIC in series [7] was 16 to 32 µg/mL (≈ 28.8 to 57.6 µM); in series [8] it was 128 µg/mL (≈ 230 µM); in [9], above 128 µg/mL; in [10] it was 8 µg/mL (≈ 14.4 µM); in series [11], 64 µg/mL (≈ 115 µM); in series [12] it was above 128 µg/mL. Also, in series [2], the “Selectivity index (CC50/MIC) MRSE 35984” value was 7.9. Moreover, the “Selectivity index (CC50/MIC) MRSA USA300” value in [3] is given as 16. Besides, in [4], the “Selectivity index (CC50/MIC) VRE NR-31972” value was found to be 4.0. Moreover, the “Selectivity index (CC50/MIC) MRSA 43300” value in series [5] was 7.9. The “Selectivity index (CC50/MIC) S. aureus 6538P” value in series [6] worked out at 7.9. The “Selectivity index (CC50/MIC) S. aureus ΔNorA” value in series [7] turned out to be 5.9. Moreover, the “Selectivity index (CC50/MIC) VRE NR-31909” value in series [8] is given as 1.0. Further, the “Selectivity index (CC50/MIC) P. aeruginosa” value in [9] is listed as below 1.0. For the same compound, the “Selectivity index (CC50/MIC) E. faecalis 29212” value in [10] is given as 16. Besides, the “Selectivity index (CC50/MIC) K. pneumoniae” value in [11] is listed as 2.0. Besides, in [13], the CC50 at 24 h came to 126 µg/mL (≈ 227 µM).

For the compound `CN(CC[C@H](N)CC(=O)N[C@H]1C=C[C@H](n2ccc(NC(=O)c3ccc(NC(=O)[C@@](C)(N)CO)cc3)nc2=O)O[C@@H]1C(=O)O)C(=N)N` [Blastimidine C5], the minimum inhibitory concentration (MIC) in series [1], in series [2], in series [3], in series [4], in series [5] and in [6] was above 128 µg/mL each time. Besides, the MIC in [7], in series [8], in series [9], in series [10], in series [11] and in [12] was above 128 µg/mL throughout. In addition, the “Selectivity index (CC50/MIC) MRSE 35984” value in series [2] was below 1.4. Besides, the “Selectivity index (CC50/MIC) MRSA USA300” value in series [3] is recorded as below 1.4. The “Selectivity index (CC50/MIC) VRE NR-31972” value in [4] is recorded as below 1.4. In series [5], the “Selectivity index (CC50/MIC) MRSA 43300” value was below 1.4. Moreover, the “Selectivity index (CC50/MIC) S. aureus 6538P” value in series [6] is reported as below 1.4. The “Selectivity index (CC50/MIC) S. aureus ΔNorA” value in series [7] is below 1.4. Besides, the “Selectivity index (CC50/MIC) VRE NR-31909” value in series [8] was below 1.4. Also, in series [9], the “Selectivity index (CC50/MIC) P. aeruginosa” value is on record as below 1.4. In addition, the “Selectivity index (CC50/MIC) E. faecalis 29212” value in series [10] is below 1.4. Further, the “Selectivity index (CC50/MIC) K. pneumoniae” value in [11] is listed as below 1.4. In [13] (setting [14]), the half-maximal cytotoxic concentration (CC50) at 24 h came to 177 µg/mL (≈ 275 µM).

`CN(CC[C@H](N)CC(=O)N[C@H]1C=C[C@H](n2ccc(NC(=O)c3ccc(N)cc3)nc2=O)O[C@@H]1C(=O)O)C(=N)N` [Blastimidine C2]: the minimal inhibitory concentration (MIC) in [1] was 64 µg/mL (≈ 118 µM); in series [2] it was above 128 µg/mL; in [3] it was 128 µg/mL (≈ 236 µM); in series [4], 128 µg/mL (≈ 236 µM); in series [5], above 128 µg/mL; in series [6] it was above 128 µg/mL. Moreover, the minimum inhibitory concentration (MIC) in series [7] was above 128 µg/mL; in series [8], 64 µg/mL (≈ 118 µM); in series [9] it was above 128 µg/mL; in series [10], 64 µg/mL (≈ 118 µM); in [11], 64 µg/mL (≈ 118 µM); in [12] it was above 128 µg/mL. In addition, the “Selectivity index (CC50/MIC) MRSE 35984” value in series [2] is below 0.5. Besides, the “Selectivity index (CC50/MIC) MRSA USA300” value in series [3] is listed as 0.5. Further, the “Selectivity index (CC50/MIC) VRE NR-31972” value in series [4] is listed as 0.5. Further, the “Selectivity index (CC50/MIC) MRSA 43300” value in series [5] was below 0.5. Besides, the “Selectivity index (CC50/MIC) S. aureus 6538P” value in series [6] is listed as below 0.5. Besides, the “Selectivity index (CC50/MIC) S. aureus ΔNorA” value in [7] was below 0.5. Moreover, in [8], the “Selectivity index (CC50/MIC) VRE NR-31909” value worked out at 1.0. In addition, the “Selectivity index (CC50/MIC) P. aeruginosa” value in series [9] is recorded as below 0.5. Moreover, the “Selectivity index (CC50/MIC) E. faecalis 29212” value in [10] is recorded as 1.0. In addition, the “Selectivity index (CC50/MIC) K. pneumoniae” value in series [11] turned out to be 1.0. The 50% cytotoxic concentration (CC50) at 24 h in [13] (setting [14]) was 66 µg/mL (≈ 122 µM).
